Results taken from paper PMC6273621, “Synthesis and the Biological Activity of Phosphonylated 1,2,3-Triazolenaphthalimide Conjugates” (Molecules, 2016).
Like-named read-outs stand apart in the source and are kept apart here.

Columns and labels:
[1] = test system: TK+ VZV strain; test: microbe, parasite or virus in culture; type: cell-based, varicella-zoster virus (VZV) strain Oka; details: for EC50: Human alphaherpesvirus 3, HEL, read-out: Antiviral Activity EC50, TK+ VZV Strain, HEL cell cultures, concentration reducing virus plaque formation by 50%
[2] = test system: TK− VZV strain; test: microbe, parasite or virus in culture; type: cell-based, varicella-zoster virus (VZV) strain 07−1; details: Human alphaherpesvirus 3, HEL, read-out: Antiviral Activity EC50, TK− VZV Strain, HEL cell cultures; concentration reducing virus plaque formation by 50%
[3] = test system: HEL cells; test: Cytotoxicity, cell morphology (MCC) in HEL cells; type: cell-based, human; details: minimum cytotoxic concentration causing microscopically detectable alteration of cell morphology
Source text: The cytotoxicity of the tested compounds toward the uninfected host cells was defined as the minimum cytotoxic concentration (MCC) that causes a microscopically detectable alteration of normal cell morphology.

[4] = test system: murine leukemia (L1210) cells; test: Cytostatic activity, L1210 cell proliferation; type: cell-based; details: Mus musculus, read-out: IC50 L1210
Method: (§1) All assays were performed in 96-well microtiter plates. To each well were added (5–7.5) × 10^4 tumor cells and a given amount of the test compound. The cells were allowed to proliferate for 48 h (murine leukemia L1210 cells) or 72 h (human lymphocytic CEM and human cervix carcinoma HeLa cells) at 37 °C in a humidified CO2-controlled atmosphere. At the end of the incubation period, the cells were counted in a Coulter counter.

[5] = test system: human T-lymphocyte (CEM) cells; test: Cytostatic activity, CEM cell proliferation; type: cell-based; details: CCRF-CEM, 72 h, read-out: IC50 CEM
Method: as §1

[6] = test system: human cervix carcinoma cells (HeLa); test: Cytostatic activity, HeLa cell proliferation; type: cell-based; details: 72 h, read-out: IC50 HeLa
Method: as §1

[7] = test system: human dermal microvascular endothelial HMEC-1 cells; test: Cytostatic activity, HMEC-1 cell proliferation; type: cell-based
[8] = test system: L1210, CEM, HeLa and HMEC-1 cells; test: Cytostatic activity, overall statement on the tested cell lines; type: cell-based; details: naphthalimides devoid of the 1,2,3-triazole unit
Method: as §1

Compound | EC50 [1] [µM] | EC50 [2] [µM] | Cytotoxicity, Cell Morphology (MCC) [3] [μM] | IC50 ([4]; L1210, 48 h) [µM] | IC50 [5] [µM] | IC50 [6] [µM] | IC50 ([7]; HMEC-1, read-out: IC50 HMEC-1) [µM] | melting point [°C] | Potency toward the TK+ VZV strain (in words) ([1]; HEL cell cultures) | IC50 ([4]; L1210, cell proliferation, 48 h) [µM] | IC50 ([5]; cell proliferation) [µM] | IC50 ([6]; cell proliferation) [µM] | IC50 ([7]; HMEC-1, cell proliferation, read-out: IC50 HMEC-1) [µM] | Cytostatic activity (in words) [8]
CCOP(=O)(OCC)C(O)Cn1cc(CN2C(=O)c3cccc4cc([N+](=O)[O-])cc(c34)C2=O)nn1 (stereo not shown) [Compound 16e, Diethyl 2-{4-[(5-Nitro-1,3-dioxo-1H-benzo[de]isoquinolin-2(3H)-yl)methyl]-1H-1,2,3-triazol-1-yl}-1-hydroxyethylphosphonate] | 83.6 | > 100 | >100 | 111 ± 39 | 127 ± 14 | 132 ± 2 | > 250 | 212 to 213 | – | – | – | – | – | –
CCOP(=O)(CCOCCn1cc(CN2C(=O)c3cccc4cccc(c34)C2=O)nn1)OCC [Compound 14h, Diethyl 2-(2-{4-[(1,3-Dioxo-1H-benzo[de]isoquinolin-2(3H)-yl)methyl]-1H-1,2,3-triazol-1-yl}ethoxy)ethylphosphonate] | > 100 | 74.6 | >100 | 196 ± 32 | 171 ± 25 | 154 ± 22 | 222 ± 39 | 156 to 158 | – | – | – | – | – | –
CCOP(=O)(OCC)C(O)Cn1cc(CN2C(=O)c3cccc4cccc(c34)C2=O)nn1 (stereo not shown) [Compound 14e, Diethyl 2-{4-[(1,3-Dioxo-1H-benzo[de]isoquinolin-2(3H)-yl)methyl]-1H-1,2,3-triazol-1-yl}-1-hydroxyethylphosphonate] | 69.9 | > 100 | >100 | > 250 | > 250 | ≥ 250 | ≥ 250 | 186 to 188 | – | – | – | – | – | –
CCOP(=O)(CCCCn1cc(CN2C(=O)c3cccc4cc([N+](=O)[O-])cc(c34)C2=O)nn1)OCC [Compound 16d, Diethyl 4-{4-[(5-Nitro-1,3-dioxo-1H-benzo[de]isoquinolin-2(3H)-yl)methyl]-1H-1,2,3-triazol-1-yl}butylphosphonate] | 29.9 | 53.9 | >100 | 70 ± 52 | 95 ± 4 | 81 ± 4 | 126 ± 37 | 150 to 151 | – | – | – | – | – | –
CCOP(=O)(CC(O)Cn1cc(CN2C(=O)c3cccc4c(Br)ccc(c34)C2=O)nn1)OCC (stereo not shown) [Compound 15f, Diethyl 3-{4-[(6-Bromo-1,3-dioxo-1H-benzo[de]isoquinolin-2(3H)-yl)methyl]-1H-1,2,3-triazol-1-yl}-2-hydroxypropylphosphonate] | 86.4 | > 100 | >100 | 23 ± 3 | 60 ± 13 | 87 ± 21 | 152 ± 1 | 152 to 153 | – | – | – | – | – | –
CCOP(=O)(Cn1cc(CN2C(=O)c3cccc4cc([N+](=O)[O-])cc(c34)C2=O)nn1)OCC [Compound 16a, Diethyl {4-[(5-Nitro-1,3-dioxo-1H-benzo[de]isoquinolin-2(3H)-yl)methyl]-1H-1,2,3-triazol-1-yl}methylphosphonate] | 39.1 | 64.5 | >100 | 66 ± 7 | 69 ± 1 | 44 ± 19 | 154 ± 1 | 147 to 148 | – | – | – | – | – | –
CCOP(=O)(CCn1cc(CN2C(=O)c3cccc4cc([N+](=O)[O-])cc(c34)C2=O)nn1)OCC [Compound 16b, Diethyl 2-{4-[(5-Nitro-1,3-dioxo-1H-benzo[de]isoquinolin-2(3H)-yl)methyl]-1H-1,2,3-triazol-1-yl}ethylphosphonate] | > 100 | 27.6 | 100 | > 250 | 176 ± 37 | 54 ± 21 | 118 ± 71 | – | no potency | – | – | – | – | –
CCOP(=O)(CCCCn1cc(CN2C(=O)c3cccc4cccc(c34)C2=O)nn1)OCC [Compound 14d, Diethyl 4-{4-[(1,3-Dioxo-1H-benzo[de]isoquinolin-2(3H)-yl)methyl]-1H-1,2,3-triazol-1-yl}butylphosphonate] | 86.4 | 56.7 | >100 | 156 ± 40 | 119 ± 3 | 150 ± 11 | 180 ± 54 | 131 to 132 | – | – | – | – | – | –
C#CCN1C(=O)c2cccc3cc([N+](=O)[O-])cc(c23)C1=O [Compound 11, 5-Nitro-2-(prop-2-yn-1-yl)-1H-benzo[de]isoquinoline-1,3(2H)-dione] | 48.9 | > 100 | 100 | – | – | – | – | 213 to 214 | – | 177 ± 16 | 229 ± 18 | 109 ± 5 | > 250 | inactive
